Test results from PMC8147254, “Efflux at the Blood-Brain Barrier Reduces the Cerebral Exposure to Ochratoxin A, Ochratoxin α, Citrinin and Dihydrocitrinone” (Toxins, 2021).
Like-named read-outs stand apart in the source and are kept apart here.

Legend:
PBCEC [1] = settings: 48 h
PBCEC [2] = assay type: cell-based, porcine; settings: 1 µM apical, 48 h, referred to t = 0 h, n = 9 (negative control 88 ± 4%)
Method: In order to study the barrier integrity PBCEC were incubated with 1 µM OTA, OTα, CIT and DHCIT in the apical compartment (blood side) of Transwell® filter inserts for 48 h. The TEER values as well as the electrical capacitance (cCL) were monitored by cellular impedance spectroscopy (Figure 4A,B). As a negative control the permeability of […] was measured after 48 h. Sucrose is not transported by any cellular transport protein and represents a marker for an intact BBB.
For barrier integrity, TEER values were monitored using a cellZscope® cellular impedance spectrometer (nanoAnalytics, Münster, Germany). […]. The detailed protocols can be found in the Supplementary Materials. […]
6.1. Cellular impedance spectroscopy
To monitor the barrier integrity during all transfer studies, the transendothelial electrical resistance (TEER) was measured with a cellZscope® cellular impedance spectrometer (nanoAnalytics, Münster, Germany) using a module suitable for 24 Transwell® filter inserts. After the mycotoxins were added to the cell culture medium, TEER was analyzed until the end of the experiment (48 h). The waiting time after each run was set to 10 min, resulting in 60 scans per 48 h.
The results were normalized to the TEER values of the first impedance spectrum of each well. Data processing was performed using the cellZscope 1.3.4 software (nanoAnalytics, Münster, Germany).

in vitro [3] = settings: pig
Method: (§1) For transfer studies from the apical (blood) side to the basolateral compartment (brain side), 1 µM of mycotoxins were applied on the apical side of the Transwell® filter compartment. Over 48 h, OTA, OTα, CIT, and DHCIT were quantified at eight points in time in both compartments by HPLC-MS/MS in order to investigate the transfer and potential metabolism of the applied compounds.
(§2) Both devices were operated with Analyst 1.6.2 software (SCIEX Germany GmbH, Darmstadt, Germany). Chromatographic separation of OTA, OTα, CIT, and DHCIT was performed on a 100 mm × 2.1 mm Halo RP-Amide 2.7 µm column (Advanced Materials Technology, Wilmington, NC, USA) equipped with an Ultra filter (KrudKatcher, Phenomenex, Aschaffenburg, Germany) at 40 °C using a gradient of ACN+1% formic acid (FA) (Solvent A) and H2O+1% FA (solvent B) at a flow rate of 250 µL/min. […] Afterwards, the column was re-equilibrated for 4 min. An injection volume of 5 µL was used. A diverter valve was used to exclude the first 5 min of the HPLC run from the mass spectrometer and reduce matrix contamination. The Ion Drive Turbo V ion source was heated to 400 °C. Further conditions were curtain gas (CUR) 35 psi N2, nebuliser gas (GS1) 45 psi N2, heater gas (GS2) 55 psi N2, and ion spray voltage 4500 V in positive and −4500 V in negative ionization mode; each MRM transition was monitored for 5 ms. Detailed mass spectrometer settings are given in the Supplementary Materials of this article.
(§3) The permeability coefficients p were calculated according to (1) as described in detail in [15]:(1) p[cm/s]=cbas[%]/[…]·Vap[cm³]/A[cm^2]·t[s] where cbas is the mycotoxin concentration in the basolateral compartment at a certain time t [s]. The initial concentration in the apical compartment is c0 h,ap and Vap is the volume of the compartment at the beginning of the experiment. A is the area of the filter insert membrane. The resulting permeability of the mycotoxin across the cell monolayer pc was calculated as shown in (2):(2) 1/pc [cm/s]=1/pc+f [cm/s][…]1/pf[cm/s] where pc+f is the permeability coefficient of the transfer study and pf the permeability coefficient of the cell-free polycarbonate filter membrane. […]
(§4) serum) and centrifugation at 220 × g at 20 °C for 10 min the supernatant was removed. Fresh complete medium was added and the cell pellet was gently resuspended twice to a final concentration of 150,000 cells/mL. 100 μ L of this suspension were seeded on rat‐tail collagen coated 96‐well plates (rat‐ tail collagen was isolated as described previously) resulting in 15,000 cells per well. PBCEC were incubated at 37 °C, 5% CO2 in a saturated humidified atmosphere. After 48 h the medium was replaced with serum‐free medium (DMEM/Ham’s F‐12 with 100 U/mL penicillin, 100 μg/mL […]
(§5) Aldrich, Steinheim, Germany)). […]
(§6) The thawing and seeding procedure was performed according to the protocol already described for the viability test as previously published. Instead of using 96‐well plates, 500 μL PBCEC suspension (500,000 cells/mL) were seeded in the upper (apical) compartment of a 12‐well Transwell®

PBCEC monolayer [4] = experiment: in vitro; settings: for amount in the apical compartment after 48 h, of initially applied amount / amount transferred to the basolateral compartment after 48 h, of initially applied amount: 1 µM (760 pmol) apical, n = 9
Method: as §1, §2, §3, §4, §5, §6

PBCEC monolayer [5] = assay type: in vitro ADME, porcine; settings: 200 nM in both compartments; for effect of probenecid on the enrichment in the apical compartment: 100 µM probenecid; for concentration in the apical compartment after 48 h / concentration in the basolateral compartment after 48 h: n = 3; for mycotoxin amounts extracted from the cells and filter membranes, of the initially applied amount: data not shown
Method: To analyse any active transport the mycotoxins were applied in the apical and basolateral compartments in equimolar concentrations of 200 nM. In a second set of experiments, 100 µM probenecid were added to both compartments 1 h before mycotoxin incubation in order to elucidate the effects of the OAT transport proteins. […] The mycotoxin concentrations were analysed as described above by HPLC-MS/MS.
For active transport studies, the cells were treated as described for transfer studies, with the only difference being that the compounds were applied on the apical and basolateral side in equimolar 200 nM concentrations (see Supplementary Materials). To investigate whether probenecid has an effect on the active transfer of the mycotoxins via OAT, 100 µM probenecid was applied to the apical and basolateral compartment 1 h before mycotoxin application and maintained until the end of the experiment.
Afterwards, the column was re-equilibrated for 4 min. An injection volume of 5 µL was used.
5. Active transport studies
To study the active transfer properties, the cells were treated in the same manner as for the normal transfer studies, but the mycotoxins were incubated on the apical and basolateral side in equimolar 200 nM concentrations as previously described. To investigate whether probenecid has an effect on the active transfer of the mycotoxins via OAT, 100 μM probenecid was applied to the apical and basolateral compartment 1 h before mycotoxin application and maintained until the end […]
after applying the mycotoxins using HPLC‐MS/MS. […]

in vitro [6] = settings: pig; remark: listed apart in the source
PBCEC [7] = settings: for cytotoxic or barrier-weakening (adverse) effects / effect on cellular viability: up to 10 µM
[8] = 100 µM probenecid from 1 h before
[9] = cellular viability (dehydrogenase activity) compared to the negative control, 1 µM, 48 h, CCK-8, n = 18
[10] = cellular viability (dehydrogenase activity) compared to the negative control, 10 µM, 48 h, CCK-8, n = 18

SMILES	cellular morphology (PBCEC [1]; 10 µM)	relative TEER value after 48 h (PBCEC [2]) [%]	Papp A→B (in vitro [3]) [×10⁻⁶ cm/s]	amount in the apical compartment after 48 h, of initially applied amount (PBCEC monolayer [4]) [%]	amount transferred to the basolateral compartment after 48 h, of initially applied amount (PBCEC monolayer [4]) [%]	permeability relative to the negative control 14C sucrose (factor) (PBCEC monolayer [4]; pig)	effect of probenecid on the enrichment in the apical compartment (PBCEC monolayer [5])	concentration in the apical compartment after 48 h (PBCEC monolayer [5]; [8]) [nM]	concentration in the basolateral compartment after 48 h (PBCEC monolayer [5]; [8]) [nM]	concentration in the apical compartment after 48 h (PBCEC monolayer [5]; without probenecid) [nM]	concentration in the basolateral compartment after 48 h (PBCEC monolayer [5]; without probenecid) [nM]	mycotoxin amounts extracted from the cells and filter membranes, of the initially applied amount (PBCEC monolayer [5])	viability at 1 µM (in vitro [6]) [%]	viability at 10 µM (in vitro [6]) [%]	cytotoxic or barrier-weakening (adverse) effects (PBCEC [7])	effect on cellular viability (PBCEC [7]; 48 h)	cellular morphology (PBCEC [1]; 100 nM and lower concentrations)	viability at 1 µM (in vitro [6]; [9]) [%]	viability at 10 µM (in vitro [6]; [10]) [%]	dehydrogenase activity compared to the negative control (PBCEC [7]; 10 nM, 48 h, CCK-8, n = 18) [%]
CC1=C2C(=CO[C@H](C)[C@H]2C)C(O)=C(C(=O)O)C1=O [CIT, Citrinin]	unremarkable	81 ± 10	1.79 ± 0.4	67 ± 3	40 ± 4	ca. 4	some effect of probenecid cannot be dismissed	205 ± 21	180 ± 12	266 ± 18	182 ± 1	below 1%	106 ± 13	134 ± 13	no adverse effects	neither altered the cellular viability	–	–	–	–
Cc1c(O)c(C(=O)O)c(O)c2c1[C@H](C)[C@@H](C)OC2=O [DHCIT, dihydrocitrinone]	unremarkable	79 ± 9	0.51 ± 0.14	87 ± 13	14 ± 3	–	–	250 ± 15	178 ± 15	278 ± 7	186 ± 6	below 1%	96 ± 11	87 ± 9	no adverse effects	neither altered the cellular viability	–	–	–	–
C[C@@H]1Cc2c(Cl)cc(C(=O)N[C@@H](Cc3ccccc3)C(=O)O)c(O)c2C(=O)O1 [OTA, Ochratoxin A]	very similar morphological changes of the PBCEC as they were observed for 10 µM T-2 toxin	62 ± 10	0.38 ± 0.08	96 ± 7	14 ± 3	–	minor almost negligible effect	292 ± 28	224 ± 6	275 ± 32	206 ± 4	below 1%	–	–	–	–	no morphological changes	92 ± 23	3 ± 4	112 ± 12
C[C@@H]1Cc2c(Cl)cc(C(=O)O)c(O)c2C(=O)O1 [OTα, ochratoxin α]	unremarkable	92 ± 16	0.68 ± 0.15	86 ± 6	19 ± 4	–	weak	236 ± 16	187 ± 1	268 ± 10	194 ± 5	below 1%	–	–	no adverse effects	neither altered the cellular viability	–	119 ± 18	100 ± 14	–
